Data on two compounds can be found in US20050058745A1, “Use of Labiatae herb preparations for extending the flavor shelf life of malt beverages” (priority 2003, published 2005).

Test [1] in a line: DCIP redox potential of light beer during pasteurization. The test is classed as physicochemical. As to conditions: for preservation of redox potential during pasteurization: 20 ppm; for Redox Potential: +20 ppm. How it is done:
Five bottles of a commercial light beer, 81 days old at the time of the experiment, but having been stored at 2° C. were used in this experiment. The following five treatments were prepared: • 1. An unpasteurized control was prepared by leaving one bottle unopened in the refrigerator until analysis. • 2. Another bottle was opened, 20 ppm carnosic acid was added from a solution made from pure material, and the bottle fobbed and crowned. This sample was also not pasteurized. • 3. A bottle was opened, fobbed to exclude air, and crowned. This sample is designated the No Addition Pasteurized Control. • 4. A bottle was opened and 20 ppm carnosic acid was added from a solution made from pure compound. The bottle was fobbed and crowned and subjected to pasteurization. • 5. A bottle was opened and 20 ppm of rosmarinic acid was added from a solution of pure compound. The bottle was fobbed and crowned and subjected to pasteurization. Treatments 3, 4, and 5 were immersed in an ambient temperature water bath and heated to 60° C. The approximate time to reach 60° C. from ambient was 12 minutes. The bottles remained at 60° C. for 12 minutes. They were then removed and cooled. All five treatments were analyzed by the DCIP-Redox method described in Example 4.

Test [2] in a line: DCIP redox potential of mash (first wort). The test is classed as physicochemical. As to conditions: for Redox: 20 ppm in mash (20 mg/kg of mash), first wort.
Procedure: A 300 g sample of 2-row Pale Barley Malt obtained from a local brewery was ground to a “brewery grind” with a hand grinder. Fifty-gram samples of the ground malt were weighed into each of three 600 mL beakers. Tap water was boiled for 5 min to remove the chlorine and sanitize the water. When cooled, the pH of the water was adjusted from 7.86 to 5.5 with 0.1 N H2SO4. The water was then heated to 43° C. (109.4° F.) and 160 g of this adjusted water was added to each beaker. To one of the beakers was added 210 μL of a 2% solution of carnosic acid in ethanol (giving 20 mg CA/kg of mash). To another beaker was added 210 μL of a 2% solution of rosmarinic acid. One beaker received no treatment. The beakers were stirred for 10 min at 43° C. on a temperature probe controlled hot plate, with the probe in one of the beakers. After the 10 min period the beakers were placed on another temperature probe controlled hot plate set at 68° C. (154.4° F.), and the probe put in one of the mash beakers. The come up time was approximately 15 min from 43° C. to 68° C. The beakers were stirred at this temperature for 15 min. After the 15-minute mash, the beakers were removed from the hot plate and cooled in an ice bath. Each beaker's contents were strained through a paper filter. Approximately 75 mL of first wort was collected from each mash. The grain was not sparged. The °Balling of the worts was measured with a temperature-compensated refractometer (Abbe, Leica Mark II).
The nature of test [3]: DPPH radical scavenging of highly hopped beer during aging at 40° C. The test is classed as physicochemical. As to conditions: for effect on DPPH numbers: beers not treated with air; for effect on DPPH number: beers treated with air. How it is done:
The bottle dosing methods used were the same as those described in Example 1. The following samples were made: • 1. 20 ppm Carnosic Acid • 2. 20 ppm Carnosic Acid plus Air • 3. 20 ppm Rosmarinic Acid • 4. 20 ppm Rosmarinic Acid plus Air • 5. 10 ppm Carnosic Acid+10 ppm Rosmarinic Acid • 6. 10 ppm Carnosic Acid+10 ppm Rosmarinic Acid+Air • 7. […] No Additions. Treatments 1 through 8 were put in a temperature regulated room set at 40° C. and maintained at ±1° C. At intervals of Zero time, 3 days, 7 days, 14 days, and 21 days, samples were withdrawn and Redox Potentials were measured by the method outlined in example 4. Color measurements were made using the L, a, b system on a Minolta Spectrophotometer model […], chroma and hue angle color measure units were recorded. DPPH radical scavenging numbers were measured using the following method. A de-ionized-H2O/EtOH buffer solution was prepared by dissolving 250 mg sodium citrate dihydrate and 10 g of absolute ethanol in 250 mL of deionized water. The solution was then titrated with 0.1 N Citric acid (6.404 g/L anhydrous citric acid) a drop at a time to reach a pH of between 4.35 and 4.5. To perform the test, about 0.04 g of DPPH was weighed to the nearest 0.1 mg in a 100 mL volumetric, recording the exact weight of DPPH. The DPPH was dissolved in methanol and methanol was added to bring the volume to the 100 mL mark. The solution was sonicated to facilitate dissolution. The beers to be measured were opened and 12 mL of each was poured into separate 15 mL centrifuge tubes, making sure that the volumes in all tubes were equal. The analyses were done in triplicate for each beer. An extra beer sample served as a spectrophotometer blank. The beer was degassed by centrifuging it for 15 min at 6,000 rpm. Into each of two 25 mL flasks was pipeted 5 mL of the pH 4.5 water-ethanol buffer. The spectrophotometer wavelength was set to 531 nm and a buffered water blank was zeroed. 1.0 mL of DPPH solution was added to the water buffer, which was swirled at the same time a timer was started. Just before 10 minutes had elapsed, the sample was transferred to a cuvette and the absorbance (ABL) was measured. The analysis was duplicated with another buffer. For accuracy it is necessary that great care be taken to add exactly 1 mL reagent. It is also important to swirl (mix) the samples consistently as the assay is sensitive to oxygen and to the amount of reagent used. Degassed beer was used to obtain a baseline at 531 nm. After centrifugation 5 mL of the beer was transferred into the appropriate labeled 25 mL flask. 1.0 mL of DPPH solution was added, the solution was swirled and the timer was started. The Absorbance ([…]) of the beer sample was recorded. This process was repeated for all samples. To eliminate any possible prejudice in order of analysis, samples were analyzed randomly. The following formula was used to calculate the amount of DPPH which reacts with 5 mL of beer: μmol DPPH=((1-[…]/ABL)×(g DPPH/394))×10^6

Test [4] is described as follows: Trained panel flavor evaluation, light beer, forced aging. As to conditions: 5 ppm, 6 days 32° C.; for preservation of fresh flavor (words): light beer. As for the experimental part:
Separate solution of pure rosmarinic acid, pure carnosol and pure carnosic acid were prepared in ethanol as previously.
The light beer used in this study was approximately one month old and was purchased at a local market. Bottle additions were done as in Example 1.
The bottles were placed in a heated room at 32±1° C. in the dark. After the allotted aging time, the bottles of beer were transferred to a dark refrigerator and stored at approximately 2° to 4° C. until they were analyzed. Additional bottles from the same code were kept unopened in 2° to 4° C. storage. These unopened samples from the same beer code were labeled “Fresh Control” used to provide fresh samples for the trained panel.
At the appropriate times, a trained 7-member panel evaluated the beers. […] Five beers were evaluated at the session—Fresh Control, Aged No Addition, and Aged containing each one of the Labiatae treatments. The overall preference rank, the character and intensity of the aroma, the levels of paper/cardboard aroma and flavor, sour or off flavors, hang and astringency and bitterness quality and intensity were evaluated.

Where [5] appears, read: pasteurized (60° C. for 12 minutes).
[6] abbreviates: 0 days at 40° C., + Air, 20 ppm (RA + CA: 10 ppm each).
[7] abbreviates: 0 days at 40° C., no air, 20 ppm (CA + RA: 10 ppm each).
Where [8] appears, read: 3 days at 40° C., + Air, 20 ppm (RA + CA: 10 ppm each).
The mark [9] stands for this setting: 3 days at 40° C., no air, 20 ppm (CA + RA: 10 ppm each).
[10] abbreviates: 7 days at 40° C., + Air, 20 ppm (RA + CA: 10 ppm each).
[11] abbreviates: 7 days at 40° C., no air, 20 ppm (CA + RA: 10 ppm each).
The mark [12] stands for this setting: 14 days at 40° C., + Air, 20 ppm (RA + CA: 10 ppm each).
[13] abbreviates: 14 days at 40° C., no air, 20 ppm (CA + RA: 10 ppm each).
[14] abbreviates: 21 days at 40° C., + Air, 20 ppm (RA + CA: 10 ppm each).
[15] abbreviates: 21 days at 40° C., no air, 20 ppm (CA + RA: 10 ppm each).

For `O=C(/C=C/c1ccc(O)c(O)c1)O[C@H](Cc1ccc(O)c(O)c1)C(=O)O` [RA, rosmarinic acid], the “preservation of redox potential during pasteurization” value in test [1] was “no potential to preserve the redox potential of beer during pasteurization”. Further, the “Redox Potential” value in test [1] (setting [5]) was found to be 13.4. The same compound gave a Redox in test [2] of 38.8. Also, the “DPPH Number” value in test [3] (setting [6]) was determined as 49.9 μmol DPPH; in test [3] (setting [7]), 51.8 μmol DPPH; in test [3] (setting [8]), 67.1 μmol DPPH; in test [3] (setting [9]), 66.3 μmol DPPH; in test [3] (setting [10]), 57.7 μmol DPPH; in test [3] (setting [11]), 58.7 μmol DPPH. Besides, the “DPPH Number” value amounted to 56.3 μmol DPPH in test [3] (setting [12]), 63.7 μmol DPPH in test [3] (setting [13]), 50.5 μmol DPPH in test [3] (setting [14]) and 57.5 μmol DPPH in test [3] (setting [15]). The “effect on DPPH numbers” value in test [3] is “Neither CA nor RA has much impact on DPPH numbers”. For the same compound, in test [3], the “effect on DPPH number” value is given as “preserves the DPPH number in beers that have been treated with air”. In addition, the “panelists' preference for treated sample over Aged No Addition sample” value in test [4] was 7 of 7 panelists preferred. In test [4], the “preservation of fresh flavor (words)” value was “very significantly retards the rate of staling”.
Regarding `CC(C)c1cc2c(c(O)c1O)[C@@]1(C(=O)O)CCCC(C)(C)[C@@H]1CC2` [CA, carnosic acid], the “preservation of redox potential during pasteurization” value in test [1] is on record as “held at a higher level than the untreated, unpasteurized control”. For the same compound, the “Redox Potential” value in test [1] (no pasteurization) stood at 67.4; in test [1] (setting [5]), 45.0. In addition, in test [2] (20 ppm), the “enhancing effect on redox potential of mash relative to RA” value is “less by about half the effect seen with RA”. In addition, the Redox in test [2] is reported as 17.3. Also, the “DPPH Number” value in test [3] (setting [6]) turned out to be 53.3 μmol DPPH; in test [3] (setting [7]), 52.2 μmol DPPH; in test [3] (setting [8]), 67.2 μmol DPPH; in test [3] (setting [9]), 69.8 μmol DPPH; in test [3] (setting [10]), 55.6 μmol DPPH; in test [3] (setting [11]), 64.7 μmol DPPH. For the same compound, the “DPPH Number” value was determined as 61.7 μmol DPPH in test [3] (setting [12]), 64.4 μmol DPPH in test [3] (setting [13]), 56.5 μmol DPPH in test [3] (setting [14]) and 60.5 μmol DPPH in test [3] (setting [15]). Moreover, in test [3], the “effect on DPPH numbers” value is recorded as “Neither CA nor RA has much impact on DPPH numbers”. Also, the “effect on DPPH number” value in test [3] was “preserves the DPPH number in beers that have been treated with air”. The “panelists' preference for treated sample over Aged No Addition sample” value in test [4] was 7 of 7 panelists preferred. Moreover, in test [4], the “preservation of fresh flavor (words)” value is “very significantly retards the rate of staling”.
